Laboratory results reported in patent publication USRE46718E1, “Compositions comprising Lactobacillus plantarum strains in combination with tannin and new Lactobacillus plantarum strains” (Probi AB, priority 2003, dated 2018).

Columns and labels:
[1] = Screening for tannase activity (breakdown of methylgallate, Osawa and Walsh); type: biochemical; set-up: key to Tannase activity (positive or negative): +: Positive tannase activity is shown as a green to brown coloration of free gallic acid in the cell-suspension after prolonged exposure to oxygen in an alkaline condition; settings: for Tannase activity (positive or negative): 24 h incubation with methylgallate at 37° C., visual colour; for Quantitative tannase activity (A440/A620): ratio of A440 after 24 h incubation with methylgallate and A620 of cell-suspension at start; for Tannase activity, in words: where comparative, versus Lactobacillus plantarum 299v
Experimental: The applied method to detect tannase activity has earlier been described by Osawa and Walsh (1993). The detecting principle is that the breakdown of the tannin, methylgallate, is measured by the following procedure:
The test bacterium is cultured anaerobically on MRSagar (Merck, Darmstadt, Germany) for 2 d at 37° C. and then the cells are harvested and suspended in 5 ml 0.9% (w/v) NaCl. The cell-suspension is centrifuged and the cells re-suspended in 10 ml 0.9% NaCl and the absorbance is measured at 620 nm (0.9% NaCl solution as standard). The cell-suspension is diluted until the absorbance is between 0.1 and 0.6 (spectrophotometer, Pharmacia LKB, Novaspec II). After centrifugation, the cells are re-suspended in 1 ml methylgallate-buffer (3.7 g/l methylgallate [Aldrich Chemical Company, Inc., Milwaukee, Wis., USA], 4.5 g/l NaH2PO4, pH=5.0 [sterile filtered]) and the tube is incubated at 37° C. for 24 h. One ml of NaHCO3-buffer (42 g NaHCO3 per litre, pH=8.6) is added and the solution is incubated for 1 h at room temperature, before measurement of the absorbance at 440 nm (NaHCO3-buffer as standard). The colour of the suspension is measured by visual determination.
The colour should be brown or green to be graded as positive tannase activity. A quantitative value of the tannase activity was obtained by the ratio between the absorbance of the cell-suspension (A620; amount of cells) at the start of the incubation with methylgallate versus the absorbance after the 24 h incubation with methylgallate (A440; coloration of free gallic acids after exposure to oxygen in an alkaline condition).

[2] = system: human colonic carcinoma cell-line HT-29; assay: Adhesion to HT-29 cells; type: cell-based; settings: for Adhesion to HT-29 cells, in salt solution: HBSS, 30 minutes, mean of at least 40 cells; for Capacity to adhere to human colonic mucosa cells, in words: compared with Lactobacillus plantarum 299v
Experimental: In total 32 L. plantarum strains isolated from human mucosa were tested as to adherence to intestinal epithelial cells of human colonic carcinoma cell-line HT-29 with a mannose-specific binding (method as described by Wold, A, et al, Infection and Immunity, October 1988, p. 2531-2537). Cells of the human adenocarcinoma cell line HT-29 were cultured in Eagle's medium supplemented with 10% fetal calf serum, 2 mM L-glutamine and 50 ig/ml of gentamicin (Sigma Chemical Co., Saint Louis, Mo., USA). A few days after the cells had reached confluence they were detached with EDTA-containing buffer (0.54 mM), washed and suspended in Hank's balanced salt solution (HBSS) at 5×10^6/ml. The bacteria were harvested, washed and suspended in HBSS at 5×10^9/ml (2× an optical density of 1.5 at 597 nm). Cells, bacteria and HBSS were mixed in the ratio 1:1:3 and incubated with end-over-end rotation for 30 minutes at 4EC. The cells were washed once with ice cold PBS and fixed with neutral buffered formalin (Histofix, Histolab, Götebrog, Sweden). The number of bacteria attached to each of at least 40 cells was determined using interference contrast microscopy (500× magnification, Nicon Optophot, with interference contrast equipment, Bergström Instruments, Göteborg, Sweden) and the mean number of bacteria per cell was calculated.

[3] = system: ischemia/reperfusion injury; assay: Lipid peroxidation after ischemia/reperfusion injury in mice (LPO-586 colorimetric assay); type: in vivo, Balb/C mice
From the text: Fifteen Balb/C mice were divided into five groups (3 mice per group) and fed different combinations of normal food, rose hip powder (rich in tannins) and the tannase positive strain Lactobacillus plantarum 299v. The constituents were mixed with some water to get a mushy consistency. Groups 1 and 2 were given normal mouse food, Group 3 got the normal food supplemented with rose hip powder (1.6 g per day), Group 4 got normal food supplemented with L. plantarum 299v (10^10 bacteria per dose) and Group 5 got normal food supplemented with both the rose hip powder and L. plantarum 299v. The mice were fed once a day for 6-8 days before inducing an ischemia/reperfusion injury. The injury was done according to the following dissection protocol: Mice were given 0.15 ml of Ketamine/Xylazine solution (7.85 mg/ml and 2.57 mg/ml, respectively) subcutaneously for anesthesia. […] 1.0 ml PBS was injected into the peritoneal cavity for fluid resuscitation. […]
Lipid peroxidation is a well-established mechanism of cellular injury and is used as an indicator of oxidative stress in cells and tissues. […] LPO-586™ is a colorimetric assay designed to quantify MDA and is based on the reaction of a chromogenic reagent, N-methyl-2-phenylindole with MDA at 45° C. One molecule of MDA reacts with two molecules of N-methyl-2-phenylindole to yield a stable chromophore with maximal absorbance at 586 nm.

[4] = system: Bacterial flora in caecum; assay: Bacterial flora in caecum after ischemia/reperfusion injury in mice (viable count); type: in vivo, Balb/C mice; settings: caecum stool after ischemia/reperfusion
From the text: Fifteen Balb/C mice were divided into five groups (3 mice per group) and fed different combinations of normal food, rose hip powder (rich in tannins) and the tannase positive strain Lactobacillus plantarum 299v. The constituents were mixed with some water to get a mushy consistency. Groups 1 and 2 were given normal mouse food, Group 3 got the normal food supplemented with rose hip powder (1.6 g per day), Group 4 got normal food supplemented with L. plantarum 299v (10^10 bacteria per dose) and Group 5 got normal food supplemented with both the rose hip powder and L. plantarum 299v. The mice were fed once a day for 6-8 days before inducing an ischemia/reperfusion injury. The injury was done according to the following dissection protocol: Mice were given 0.15 ml of Ketamine/Xylazine solution (7.85 mg/ml and 2.57 mg/ml, respectively) subcutaneously for anesthesia. […] 1.0 ml PBS was injected into the peritoneal cavity for fluid resuscitation. […] The abdomen was then closed using a running vicryl 3-0 suture. The animal was allowed to awake from anesthesia and was removed from the warming pad and placed back into the cage. After 4 h and 15 min, the animal was given anesthesia again and tissue and stool samples were obtained in the following order and placed in preweighed tubes: liver tissue, ilium mesentery tissue and cecum stool for bacteriological sampling, and cecum and ilium tissue for colorimetric assay for lipid peroxidaton, and cecum and ilium tissue for histological examination. The samples for bacteriological evaluation were weighed and placed in freezing media and frozen immediately at −70° C. Samples for colorimetric assay (LPO586) were rinsed in PBS, weighed, homogenized, aliquoted and then frozen immediately at −70° C.
Bacteriological evaluation was performed by viable count by anaerobic incubation (BBL Gas Pak Plus, Becton Dickinson and Company, Sparks, Md., USA) on Rogosa-agar (Merck, Darmstadt, Germany) at 37° C. for 3 d, VRBD-agar (Merck, Darmstadt, Germany) at 37° C. for 24 h and Brain heart infusion agar (BHI; Oxoid, Basingstoke, Hampshire, England) at 37° C. for 3 d. Viable count on BHI was also done aerobically.

Row | Substance | Tannase activity (positive or negative) [1] | Quantitative tannase activity (A440/A620) [1] | Adhesion to HT-29 cells, in salt solution [2] | Adhesion to HT-29 cells, in presence of methyl-mannoside [2] | MDA (lipid peroxidation), in words ([3]; compared to the positive control (Group 2)) | Malondialdehyde (MDA) per g colonic tissue [median-value] ([3]; mice fed once a day for 6-8 days before 30 min ischemia, sampled 4 h 15 min after reperfusion, Control B 6.3, uninjured 4.3) | Median of viable count, Total aerobes ([4]; BHI agar aerobic) | Median of viable count, Total anaerobes ([4]; BHI agar anaerobic) | Median of viable count, Lactobacilli ([4]; Rogosa-agar) | Median of viable count, Enterobacteriaceae ([4]; VRBD-agar) | Tannase activity, in words [1] | Capacity to adhere to human colonic mucosa cells, in words [2]
1 | Lactobacillus plantarum 299v, DSM 9843 [Strain 299v] | + | 6.2 | 11.7 number of bacteria per cell | 3.4 number of bacteria per cell | decreased the MDA | 5.8 | 4 × 10^9 CFU per a caecal content | 3 × 10^9 CFU per a caecal content | 2 × 10^9 CFU per a caecal content | 3 × 10^3 CFU per a caecal content | – | –
2 | Lactobacillus plantarum HEAL 9, DSM 15312 | + | 6.4 | 20 number of bacteria per cell | 2.1 number of bacteria per cell | – | – | – | – | – | – | higher tannase activity | higher capacity to adhere
3 | Lactobacillus plantarum HEAL 19, DSM 15313 | + | 7.4 | 23 number of bacteria per cell | 5.0 number of bacteria per cell | – | – | – | – | – | – | higher tannase activity | higher capacity to adhere
4 | Lactobacillus plantarum HEAL 99, DSM 15316 | + | 6.8 | 20 number of bacteria per cell | 2.0 number of bacteria per cell | – | – | – | – | – | – | higher tannase activity | higher capacity to adhere
